Legend:
[1] = biological target: T1, PKC-γ (Homo sapiens, UniProt P05129); test: Nuclear localization of PKC-γ (Fn/c, immunofluorescence), specificity; type: cell-based; details: MCF7 breast cancer cell line; FIG. 1D
T1 construct: endogenous in cells; host or cells: MCF7
Description: (§1) FIG. 1 is a graphical, schematic and photographic representation showing that PKC-θ can be targeted for therapeutic intervention. A) Depicts the strength of binding of recombinant purified His6-PKC-θ to increasing concentrations of different subunits and subunit combinations (α2, α2β1, and β1) of the importin α/β heterodimer nuclear transport receptor using an AlphaScreen® binding assay as described in Wagstaff et al. (2011. Journal of Biomolecular Screening 16 (2):192-200). B-C) Depicts protein structure of PKC-θ indicating binding locations for the PKC-θ peptide inhibitor, PKCθi (RKEIDPPFRPKVK), including the nuclear localization sequence (NLS) of PKC-θ. D) The specificity of PKCθi was examined on cells treated with this peptide inhibitor. Cells were screened with primary antibodies to PKC-θ (T538p), PKC-β2, PKC-β1, PKC-α, PKC-ε and PKC-γ. The nuclear to cytoplasmic fluorescence ratio (Fn/c) using the equation: Fn/c=(Fn−Fb)/(Fc−Fb), where Fn is nuclear fluorescence, Fc is cytoplasmic fluorescence, and Fb is background fluorescence was used to determine the impact on nuclear translocation/localization. […] EC^50 of inhibitors calculated using GraphPad PRISM software. F) The PKC-θ kinase activity was measured using the PKC kinase activity kit from ENZO life sciences and recombinant PKC-θ; C27 is an inhibitor of PKC-θ kinase activity, which is disclosed in Jimenez et al. (2013. […]

[2] = biological target: recombinant PKC-θ (Homo sapiens, UniProt Q04759); test: PKC-θ kinase activity (PKC kinase activity kit, ENZO life sciences); type: biochemical; details: FIG. 1F
Sequence of recombinant PKC-θ (Q04759 whole entry): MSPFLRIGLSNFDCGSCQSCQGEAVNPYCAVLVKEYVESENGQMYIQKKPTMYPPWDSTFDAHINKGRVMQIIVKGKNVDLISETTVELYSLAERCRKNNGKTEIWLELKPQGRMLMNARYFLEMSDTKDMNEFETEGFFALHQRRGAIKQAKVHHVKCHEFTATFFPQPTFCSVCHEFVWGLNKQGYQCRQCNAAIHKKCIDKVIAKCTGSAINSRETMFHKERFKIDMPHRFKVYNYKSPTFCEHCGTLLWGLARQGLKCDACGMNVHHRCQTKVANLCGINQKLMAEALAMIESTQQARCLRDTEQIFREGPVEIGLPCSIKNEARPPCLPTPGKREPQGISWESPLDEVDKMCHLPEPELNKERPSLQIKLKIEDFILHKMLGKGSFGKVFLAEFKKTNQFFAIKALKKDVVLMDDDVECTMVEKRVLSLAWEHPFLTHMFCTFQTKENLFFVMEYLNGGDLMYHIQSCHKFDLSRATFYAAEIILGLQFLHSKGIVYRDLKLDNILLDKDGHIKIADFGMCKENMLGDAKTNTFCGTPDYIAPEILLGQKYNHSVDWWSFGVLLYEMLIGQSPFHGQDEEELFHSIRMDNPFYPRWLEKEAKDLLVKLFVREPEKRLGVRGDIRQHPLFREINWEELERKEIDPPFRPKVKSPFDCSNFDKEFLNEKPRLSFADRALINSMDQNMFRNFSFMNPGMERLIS
Description: as §1

[3] = tested on: CD8^+ T-cells of melanoma patient liquid biopsies; test: Immunofluorescence of EOMES, TBET and PD-1 (exhaustion signature) in patient CD8+ T-cells; type: cell-based, human; details: CR, SD and PD cohorts, vehicle or PMA/CI, FIG. 4
Description: FIG. 4 is graphical representation showing expression of EOMES, TBET and PD-1 in CD8^+ T-cells of melanoma patient liquid biopsies in the presence and absence of PKCθi peptide inhibitor. A) CD8^+ T-cells were isolated from melanoma patient liquid biopsies (CR=complete response, SD=Stable Disease, PD=progression of disease) and were stimulated with PMA/CI and pre-clinically screened with either vehicle control or PKCθi peptide inhibitor. Samples were then fixed and immunofluorescence microscopy was performed on these cells with primary antibodies for EOMES, TBET, and PD-1. Representative images for each dataset are shown. Graph represents the TCFI for PD1, TNFI for EOMES and TNFI for TBET measured using ImageJ to select the nucleus minus background (n=>20 cells/sample). Graphs depicting the % inhibition or induction based on protein expression where also plotted for each protein target relative to untreated sample.
Metastatic Melanoma Biopsies were pre-enriched using the RosetteSep™ method to isolate CTCs by employing the RosetteSep™ Human CD8 enrichment Kit (15063, StemCell Technologies) to isolate CD8+ cells and red blood cells, using density gradient centrifugation with SepMate™-50 (IVD) density gradient tubes (85450, StemCell Technologies) and Lymphoprep™ density gradient medium (07861, StemCell Technologies). […] Digital images were analysed using ImageJ software (ImageJ, NIH, Bethesda, Md., USA) to determine the either the Total Nuclear Fluorescent Intensity (TNFI), the Total Cytoplasmic Fluorescent Intensity (TCFI) or total Fluorescent Intensity (TFI). The plot-profile feature of ImageJ was used to plot the fluorescence signal intensity along a single line spanning the nucleus (n=5 lines per a nucleus, 5 individual cells) using the average fluorescent signal intensity for the indicated pair of antibodies was plotted for each point on the line with SE. […] For each plot-profile the PCC was determined. […]

For RKEIDPPFRPKVK [PKCθi], the “nuclear localization of PKC-γ” value [1] was “no effect”, the PKC-θ catalytic activity [2] was “without impacting” and the TBET expression [3] was “enhancing”. The “expression of EOMES” value ([3]; inhibitor 8 mm) was “inhibiting expression” and the “expression of PD-1” value ([3]; inhibitor 8 mm) was “inhibiting expression”.

Source: patent publication US20200282010A1, “IMMUNOGENIC COMPOSITIONS AND USES THEREFOR” (Epiaxis Therapeutics Pty Ltd, priority 2017, published 2020)
